Changes are numbered by the printed parent chain.
Experiments:
[1] = test system: A498; experiment: NCI 60 antitumor screening (single dose / five doses); assay type: cell-based; details: Homo sapiens; A498, five doses (0.01–100 μM); read-out: GI50
[2] = test system: COLO 205; experiment: as above; assay type: cell-based; details: Homo sapiens
[3] = test system: MDA-MB-468; experiment: as above; assay type: cell-based; details: Homo sapiens
[4] = test system: EKVX; experiment: as above; assay type: cell-based; details: Homo sapiens; EKVX (non-small cell lung cancer), single dose 10 μM; read-out: Growth inhibition percentage (GI %)
[5] = test system: SK-MEL-2; experiment: as above; assay type: cell-based; details: Homo sapiens
[6] = test system: HL-60(TB) cells; experiment: Cell cycle analysis (PI, flow cytometry); assay type: cell-based, human; details: 24 h
Description: Targeting cancer cell cycle has been emerged as a viable approach for cancer treatment. To recognise the role of compound 6c in GI of cancer cells, and induction of apoptosis in different phases, DNA flow cytometric analysis was performed to measure the effect of compound 6c on cell cycle progression for leukaemia, HL-60(TB) cancer cells.
Following that, two runs of wash with ice-cold phosphate-buffered saline (PBS) were performed. And then, the treated HL-60(TB) cells were centrifuged and frozen in ethanol (70%, ice-cold) then washed in PBS, resuspended with RNase ([…]), stained with PI ([…]), finally analysed by flow cytometry using a FACS Calibur (Becton Dickinson, BD; Franklin Lakes, NJ). To calculate the cell cycle distributions, CellQuest software version 5.1 (Becton Dickinson) was used.

[7] = test system: active Caspase 3; experiment: Western blot analysis for apoptotic markers; assay type: cell-based, human; details: HL-60(TB) cells
Description: (§1) Cysteine-containing aspartic acid-specific proteases, caspases provide essential links in cell controlling the apoptotic machinery[45]^,[46]. For this reason, this study was further extended to investigate the mechanism of compound 6c to provoke apoptosis in HL-60(TB) leukaemia cell line.
(§2) Compound 6c was incubated with the seeded cells following the procedure described by W. Neal Burnette[60].

[8] = test system: active Caspase 9; experiment: Western blot analysis for apoptotic markers; assay type: cell-based, human; details: HL-60(TB) cells
Description: as §1, §2

[9] = test system: SK-MEL-5; experiment: NCI 60 antitumor screening (single dose / five doses); assay type: cell-based; details: Homo sapiens
[10] = in vitro; details: human
Description: Data was measured in triplicate, and IC50 values are given as mean values ± SD.

[11] = test system: HL-60(TB) cells; experiment: Annexin V-FITC/PI apoptosis assay; assay type: cell-based, human; details: GI50 (158 nM), 24 h
Description: Extrinsic as well as intrinsic apoptosis in leukaemia, HL-60(TB) cancer cells, induced by compound 6c was evaluated by Annexin V and PI staining. […] Compound 6c induced an early apoptosis (2.88%), in HL-60(TB) at 24 h compared to control (0.51%) and enhanced late apoptotic induction (15.75%) by more than 85-fold over the untreated cells (0.18%). Moreover, compound 6c induced necrosis by 7 times more than control as declared in Figures 8 and 9.
Annexin V-fluorescein isothiocyanate (Annexin V-FITC) has high affinity to phosphatidylserine (PS). This affinity enables detection of PS by Annexin V-FITC staining as previously described.

[12] = target: T1, wild type IDH2 (Homo sapiens, UniProt P48735); experiment: IDH2 enzyme inhibition assay (wild type IDH Assay Kit)
T1 sequence (P48735 40-452): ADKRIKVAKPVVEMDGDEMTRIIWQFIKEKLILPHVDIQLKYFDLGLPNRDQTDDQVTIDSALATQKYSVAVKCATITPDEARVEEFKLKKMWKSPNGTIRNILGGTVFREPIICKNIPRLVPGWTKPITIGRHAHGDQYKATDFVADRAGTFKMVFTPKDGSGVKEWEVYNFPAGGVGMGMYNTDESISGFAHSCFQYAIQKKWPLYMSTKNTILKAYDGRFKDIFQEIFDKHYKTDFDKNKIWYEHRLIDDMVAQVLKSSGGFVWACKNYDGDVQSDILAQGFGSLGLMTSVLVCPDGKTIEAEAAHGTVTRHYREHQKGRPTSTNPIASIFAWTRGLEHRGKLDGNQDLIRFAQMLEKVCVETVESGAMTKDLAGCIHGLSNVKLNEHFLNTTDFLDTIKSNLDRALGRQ

[13] = target: T2, IDH2^R140Q (Homo sapiens, UniProt P48735, R140Q); experiment: biochemical
T2 sequence (P48735 40-452 R140Q): T1 sequence (P48735 40-452) with R101Q

For `Brc1cccc(/C=N/Nc2nc(N/N=C/c3cccc(Br)c3)nc(N3CCOCC3)n2)c1` [compound 6c, 2,4-Bis[(E)-2-[(3-bromophenyl)methylidene]hydrazin-1-yl]-6-(morpholin-4-yl)-1,3,5-triazine], the GI50 [1] was 0.14 µM, the inhibition at 10 µM ([2]; COLO 205 (colon cancer), single dose 10 μM, read-out: Growth inhibition percentage (GI %)) was 76.2% and the GI50 ([2]; COLO 205, five doses (0.01–100 μM), read-out: GI50) was 1.24 µM. The inhibition at 10 µM ([3]; MDA-MB-468 (breast cancer), single dose 10 μM, read-out: Growth inhibition percentage (GI %)) was 98.9%, the GI50 ([3]; MDA-MB-468, five doses (0.01–100 μM), read-out: GI50) was 1.91 µM and the inhibition at 10 µM [4] was 51%. The inhibition at 10 µM ([5]; SK-MEL-2 (melanoma), single dose 10 μM, read-out: Growth inhibition percentage (GI %)) was 97.4%, the GI50 ([5]; SK-MEL-2, five doses (0.01–100 μM)) was 2.43 µM and the “increase of apoptotic cells at the pre-G1 phase compared to DMSO” value ([6]; 158 nM) was 14 fold. The “Cell cycle distribution %G0–G1” value ([6]; GI50 concentration (158 nM)) was 54.06%, the “Cell cycle distribution %G2/M” value ([6]; GI50 concentration (158 nM)) was 4.76% and the “Cell cycle distribution %Pre-G1” value ([6]; GI50 concentration (158 nM)) was 28.02%. The “Cell cycle distribution %S” value ([6]; GI50 concentration (158 nM)) was 41.18%, the “expression of active caspase 3 in comparison to the control” value [7] was “about 3 fold” and the “expression of active caspase 9 in comparison to the control” value [8] was about 4 fold. For the same molecule, the inhibition at 10 µM ([9]; SK-MEL-5 (melanoma), single dose 10 μM, read-out: Growth inhibition percentage (GI %)) was 79.3%, the GI50 ([9]; SK-MEL-5, five doses (0.01–100 μM), read-out: GI50) was 1.99 µM and the IC50 [10] was 53.7 ± 2.94 µM. The early apoptosis [11] was 2.88%, the late apoptotic induction [11] was 15.75% and the “late apoptotic induction over the untreated cells” value [11] was “more than 85 fold”. For the same molecule, the “necrosis induction relative to control” value [11] was 7 times, the IC50 [12] was 2.93 ± 0.11 µM and the IC50 [13] was 0.102 ± 0.00497 µM.
